Data reported in ChEMBL document CHEMBL5696441 (Nat Chem Biol, 2011).

Columns and labels:
[1] = target: Dual specificity mitogen-activated protein kinase kinase 3 (Homo sapiens) (UniProt P46734); test: Inhibition of MEK3 (unknown origin) assessed as remaining activity at 1 uM by Kinome scan method relative to control
[2] = target: Interferon-induced, double-stranded RNA-activated protein kinase (Homo sapiens) (UniProt P19525); test: Inhibition of PRKR (unknown origin) assessed as remaining activity at 1 uM by Kinome scan method relative to control
Chain of Interferon-induced, double-stranded RNA-activated protein kinase (Homo sapiens) (P19525 whole entry): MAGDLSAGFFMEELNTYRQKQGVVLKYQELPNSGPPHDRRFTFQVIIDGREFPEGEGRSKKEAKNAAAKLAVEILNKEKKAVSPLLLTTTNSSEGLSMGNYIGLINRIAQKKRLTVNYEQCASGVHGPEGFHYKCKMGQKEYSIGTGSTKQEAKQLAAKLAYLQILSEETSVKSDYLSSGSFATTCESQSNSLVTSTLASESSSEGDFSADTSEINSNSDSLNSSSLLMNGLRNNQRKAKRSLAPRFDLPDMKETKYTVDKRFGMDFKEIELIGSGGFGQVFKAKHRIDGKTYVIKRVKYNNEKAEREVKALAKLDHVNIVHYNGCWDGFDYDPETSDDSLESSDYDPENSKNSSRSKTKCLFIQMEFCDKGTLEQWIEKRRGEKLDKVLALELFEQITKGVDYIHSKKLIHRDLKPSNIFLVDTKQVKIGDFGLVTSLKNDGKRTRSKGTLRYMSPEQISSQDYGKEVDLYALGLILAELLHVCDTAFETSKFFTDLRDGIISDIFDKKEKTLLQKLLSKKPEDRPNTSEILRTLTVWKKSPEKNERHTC

[3] = target: T1, Serine/threonine-protein kinase Nek1 (Homo sapiens) (UniProt Q96PY6); test: Inhibition of NEK1 (unknown origin) assessed as remaining activity at 1 uM by Kinome scan method relative to control
T1 sequence (whole entry): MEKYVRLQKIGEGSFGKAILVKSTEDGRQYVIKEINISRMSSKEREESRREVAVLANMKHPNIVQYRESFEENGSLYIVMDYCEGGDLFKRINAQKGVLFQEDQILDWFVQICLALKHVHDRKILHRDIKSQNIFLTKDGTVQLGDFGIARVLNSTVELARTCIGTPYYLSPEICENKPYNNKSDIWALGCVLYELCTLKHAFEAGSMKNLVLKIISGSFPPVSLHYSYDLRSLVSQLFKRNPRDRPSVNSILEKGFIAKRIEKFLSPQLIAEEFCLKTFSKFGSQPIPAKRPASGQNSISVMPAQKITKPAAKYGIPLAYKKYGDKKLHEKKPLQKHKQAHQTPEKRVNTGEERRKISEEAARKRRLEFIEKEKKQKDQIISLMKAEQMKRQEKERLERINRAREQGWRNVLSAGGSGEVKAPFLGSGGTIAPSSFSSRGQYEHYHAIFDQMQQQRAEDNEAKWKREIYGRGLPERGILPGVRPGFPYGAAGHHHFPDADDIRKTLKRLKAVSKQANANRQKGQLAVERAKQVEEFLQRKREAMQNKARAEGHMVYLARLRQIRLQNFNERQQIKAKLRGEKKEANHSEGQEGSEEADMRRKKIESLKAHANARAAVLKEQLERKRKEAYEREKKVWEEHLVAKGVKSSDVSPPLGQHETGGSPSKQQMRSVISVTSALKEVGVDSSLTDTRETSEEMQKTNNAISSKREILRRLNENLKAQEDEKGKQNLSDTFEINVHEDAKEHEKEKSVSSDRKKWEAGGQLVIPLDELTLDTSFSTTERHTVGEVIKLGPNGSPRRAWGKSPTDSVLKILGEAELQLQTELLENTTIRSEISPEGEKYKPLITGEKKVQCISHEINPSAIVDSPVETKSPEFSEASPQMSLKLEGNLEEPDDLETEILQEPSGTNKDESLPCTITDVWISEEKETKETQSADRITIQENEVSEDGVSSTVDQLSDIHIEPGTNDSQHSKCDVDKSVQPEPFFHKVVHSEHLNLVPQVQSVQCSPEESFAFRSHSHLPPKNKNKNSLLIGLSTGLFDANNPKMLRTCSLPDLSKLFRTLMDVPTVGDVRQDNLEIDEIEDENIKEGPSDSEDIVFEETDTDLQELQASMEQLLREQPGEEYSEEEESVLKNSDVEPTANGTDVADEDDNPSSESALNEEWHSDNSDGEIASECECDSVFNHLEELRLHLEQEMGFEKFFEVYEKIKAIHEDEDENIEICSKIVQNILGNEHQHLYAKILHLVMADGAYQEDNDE

[4] = test system: Phosphatidylinositol 4,5-bisphosphate 3-kinase catalytic subunit alpha isoform (Homo sapiens), P42336 [H1047L]; test: Inhibition of PIK3CA H1047L mutant (unknown origin) assessed as remaining activity at 1 uM by Kinome scan method relative to control
[5] = target: Dual specificity testis-specific protein kinase 1 (Homo sapiens) (UniProt Q15569); test: Inhibition of TESK1 (unknown origin) assessed as remaining activity at 1 uM by Kinome scan method relative to control
Chain of Dual specificity testis-specific protein kinase 1 (Homo sapiens) (Q15569 whole entry, looked up): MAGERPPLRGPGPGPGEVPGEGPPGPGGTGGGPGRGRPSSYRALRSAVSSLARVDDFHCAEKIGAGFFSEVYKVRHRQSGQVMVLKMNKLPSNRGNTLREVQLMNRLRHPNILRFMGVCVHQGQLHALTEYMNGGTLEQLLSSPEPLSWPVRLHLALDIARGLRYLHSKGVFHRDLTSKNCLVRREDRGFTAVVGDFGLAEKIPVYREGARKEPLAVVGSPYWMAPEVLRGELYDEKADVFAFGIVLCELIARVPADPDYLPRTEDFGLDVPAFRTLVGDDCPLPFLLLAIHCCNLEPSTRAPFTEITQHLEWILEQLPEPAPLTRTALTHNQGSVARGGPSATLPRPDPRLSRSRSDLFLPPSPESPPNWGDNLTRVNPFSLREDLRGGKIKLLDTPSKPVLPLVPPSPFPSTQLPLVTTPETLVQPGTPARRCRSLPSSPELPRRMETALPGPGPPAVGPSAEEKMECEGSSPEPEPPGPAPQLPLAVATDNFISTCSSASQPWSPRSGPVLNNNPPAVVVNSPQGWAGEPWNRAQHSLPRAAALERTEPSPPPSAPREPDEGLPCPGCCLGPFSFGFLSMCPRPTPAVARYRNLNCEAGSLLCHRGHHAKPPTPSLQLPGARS

[6] = target: NT-3 growth factor receptor (Homo sapiens) (UniProt Q16288); test: Inhibition of TRKC (unknown origin) assessed as remaining activity at 1 uM by Kinome scan method relative to control
Chain of NT-3 growth factor receptor (Homo sapiens) (Q16288 32-839 limits assumed): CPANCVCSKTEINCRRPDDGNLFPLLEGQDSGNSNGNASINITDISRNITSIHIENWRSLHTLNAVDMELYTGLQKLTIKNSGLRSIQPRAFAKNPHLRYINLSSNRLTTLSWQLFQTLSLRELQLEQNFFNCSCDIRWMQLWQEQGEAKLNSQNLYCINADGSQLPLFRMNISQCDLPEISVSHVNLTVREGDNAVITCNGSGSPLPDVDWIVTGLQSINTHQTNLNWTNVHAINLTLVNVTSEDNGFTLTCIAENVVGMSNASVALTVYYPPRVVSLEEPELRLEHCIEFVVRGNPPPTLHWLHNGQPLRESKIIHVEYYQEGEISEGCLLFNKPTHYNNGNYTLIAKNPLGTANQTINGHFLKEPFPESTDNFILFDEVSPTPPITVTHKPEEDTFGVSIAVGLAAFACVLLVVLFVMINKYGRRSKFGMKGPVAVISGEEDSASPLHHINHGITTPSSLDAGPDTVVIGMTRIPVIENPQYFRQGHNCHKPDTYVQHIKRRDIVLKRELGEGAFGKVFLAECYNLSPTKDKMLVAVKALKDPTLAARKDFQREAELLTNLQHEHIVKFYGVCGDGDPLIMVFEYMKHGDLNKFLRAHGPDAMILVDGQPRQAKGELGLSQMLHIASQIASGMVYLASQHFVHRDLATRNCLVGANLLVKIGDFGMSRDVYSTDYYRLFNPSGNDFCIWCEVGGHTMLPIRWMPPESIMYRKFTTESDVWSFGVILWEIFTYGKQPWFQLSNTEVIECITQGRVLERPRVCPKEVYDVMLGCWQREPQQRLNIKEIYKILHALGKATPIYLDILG

[7] = target: Serine/threonine-protein kinase MRCK beta (Homo sapiens) (UniProt Q9Y5S2); test: Inhibition of MRCKB (unknown origin) assessed as remaining activity at 1 uM by Kinome scan method relative to control
Chain of Serine/threonine-protein kinase MRCK beta (Homo sapiens) (Q9Y5S2 whole entry): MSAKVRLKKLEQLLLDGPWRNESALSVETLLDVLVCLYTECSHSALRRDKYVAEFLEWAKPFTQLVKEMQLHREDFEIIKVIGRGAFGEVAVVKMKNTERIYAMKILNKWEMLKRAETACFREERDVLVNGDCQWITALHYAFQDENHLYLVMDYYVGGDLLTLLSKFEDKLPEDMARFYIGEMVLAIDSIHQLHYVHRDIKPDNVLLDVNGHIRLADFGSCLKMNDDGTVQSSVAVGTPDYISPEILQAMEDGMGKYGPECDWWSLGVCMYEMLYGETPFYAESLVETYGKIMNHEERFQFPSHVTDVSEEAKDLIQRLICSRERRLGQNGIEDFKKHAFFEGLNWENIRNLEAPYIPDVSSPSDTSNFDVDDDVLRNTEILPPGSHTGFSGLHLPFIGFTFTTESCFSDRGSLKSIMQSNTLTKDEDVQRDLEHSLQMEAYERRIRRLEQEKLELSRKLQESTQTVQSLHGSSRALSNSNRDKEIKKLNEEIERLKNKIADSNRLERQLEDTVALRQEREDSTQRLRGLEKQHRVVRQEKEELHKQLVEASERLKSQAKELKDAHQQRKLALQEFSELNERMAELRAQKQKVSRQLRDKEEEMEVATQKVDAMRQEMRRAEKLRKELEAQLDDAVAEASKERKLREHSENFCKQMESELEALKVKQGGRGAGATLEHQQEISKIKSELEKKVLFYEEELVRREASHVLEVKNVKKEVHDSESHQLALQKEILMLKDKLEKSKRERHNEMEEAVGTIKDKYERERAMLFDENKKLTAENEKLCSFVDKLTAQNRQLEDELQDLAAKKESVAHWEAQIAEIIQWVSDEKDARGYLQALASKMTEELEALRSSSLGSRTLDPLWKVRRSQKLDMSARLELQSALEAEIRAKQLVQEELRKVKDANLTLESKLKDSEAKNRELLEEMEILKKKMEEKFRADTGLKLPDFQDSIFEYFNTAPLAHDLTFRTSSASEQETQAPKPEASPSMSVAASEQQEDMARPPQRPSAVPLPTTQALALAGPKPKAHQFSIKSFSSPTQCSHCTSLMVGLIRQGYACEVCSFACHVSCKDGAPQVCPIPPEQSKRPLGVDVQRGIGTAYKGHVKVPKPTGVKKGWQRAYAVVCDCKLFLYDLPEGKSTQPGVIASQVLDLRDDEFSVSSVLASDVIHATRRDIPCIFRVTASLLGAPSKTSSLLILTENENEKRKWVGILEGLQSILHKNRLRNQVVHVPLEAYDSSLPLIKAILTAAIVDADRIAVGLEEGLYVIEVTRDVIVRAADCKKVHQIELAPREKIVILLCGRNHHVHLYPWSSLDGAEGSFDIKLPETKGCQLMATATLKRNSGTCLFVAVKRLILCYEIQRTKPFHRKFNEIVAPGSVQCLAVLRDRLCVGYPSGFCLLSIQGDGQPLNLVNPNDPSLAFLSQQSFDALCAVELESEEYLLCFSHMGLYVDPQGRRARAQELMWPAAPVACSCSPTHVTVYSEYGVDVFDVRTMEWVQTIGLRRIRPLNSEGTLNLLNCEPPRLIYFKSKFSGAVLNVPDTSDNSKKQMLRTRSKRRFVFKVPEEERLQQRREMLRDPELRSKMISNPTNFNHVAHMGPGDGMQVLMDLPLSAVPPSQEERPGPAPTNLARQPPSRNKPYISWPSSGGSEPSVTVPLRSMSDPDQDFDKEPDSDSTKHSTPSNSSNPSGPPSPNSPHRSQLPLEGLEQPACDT

[8] = target: Serine/threonine-protein kinase 32C (Homo sapiens) (UniProt Q86UX6); test: Inhibition of YANK3 (unknown origin) assessed as remaining activity at 1 uM by Kinome scan method relative to control
Chain of Serine/threonine-protein kinase 32C (Homo sapiens) (Q86UX6 whole entry, canonical isoform): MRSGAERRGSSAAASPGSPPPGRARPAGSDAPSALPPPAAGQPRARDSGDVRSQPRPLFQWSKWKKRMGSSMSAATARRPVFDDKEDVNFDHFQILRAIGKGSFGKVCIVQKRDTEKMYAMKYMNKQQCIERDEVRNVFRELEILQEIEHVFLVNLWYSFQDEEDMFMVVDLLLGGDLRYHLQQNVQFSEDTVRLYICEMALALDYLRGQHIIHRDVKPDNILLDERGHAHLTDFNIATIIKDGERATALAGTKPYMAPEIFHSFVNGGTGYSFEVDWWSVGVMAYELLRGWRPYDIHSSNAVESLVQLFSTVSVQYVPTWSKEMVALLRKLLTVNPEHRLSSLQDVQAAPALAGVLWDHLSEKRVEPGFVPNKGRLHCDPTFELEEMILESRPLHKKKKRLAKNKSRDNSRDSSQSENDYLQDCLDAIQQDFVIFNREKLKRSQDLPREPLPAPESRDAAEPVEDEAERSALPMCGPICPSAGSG

[9] = target: Phosphatidylinositol 4,5-bisphosphate 3-kinase catalytic subunit gamma isoform (Homo sapiens) (UniProt P48736); test: Inhibition of PIK3CG (unknown origin) assessed as remaining activity at 1 uM by Kinome scan method relative to control
[10] = target: T2, Ephrin type-B receptor 4 (Homo sapiens) (UniProt P54760); test: Inhibition of EPHB4 (unknown origin) assessed as remaining activity at 1 uM by Kinome scan method relative to control
T2 sequence (whole entry): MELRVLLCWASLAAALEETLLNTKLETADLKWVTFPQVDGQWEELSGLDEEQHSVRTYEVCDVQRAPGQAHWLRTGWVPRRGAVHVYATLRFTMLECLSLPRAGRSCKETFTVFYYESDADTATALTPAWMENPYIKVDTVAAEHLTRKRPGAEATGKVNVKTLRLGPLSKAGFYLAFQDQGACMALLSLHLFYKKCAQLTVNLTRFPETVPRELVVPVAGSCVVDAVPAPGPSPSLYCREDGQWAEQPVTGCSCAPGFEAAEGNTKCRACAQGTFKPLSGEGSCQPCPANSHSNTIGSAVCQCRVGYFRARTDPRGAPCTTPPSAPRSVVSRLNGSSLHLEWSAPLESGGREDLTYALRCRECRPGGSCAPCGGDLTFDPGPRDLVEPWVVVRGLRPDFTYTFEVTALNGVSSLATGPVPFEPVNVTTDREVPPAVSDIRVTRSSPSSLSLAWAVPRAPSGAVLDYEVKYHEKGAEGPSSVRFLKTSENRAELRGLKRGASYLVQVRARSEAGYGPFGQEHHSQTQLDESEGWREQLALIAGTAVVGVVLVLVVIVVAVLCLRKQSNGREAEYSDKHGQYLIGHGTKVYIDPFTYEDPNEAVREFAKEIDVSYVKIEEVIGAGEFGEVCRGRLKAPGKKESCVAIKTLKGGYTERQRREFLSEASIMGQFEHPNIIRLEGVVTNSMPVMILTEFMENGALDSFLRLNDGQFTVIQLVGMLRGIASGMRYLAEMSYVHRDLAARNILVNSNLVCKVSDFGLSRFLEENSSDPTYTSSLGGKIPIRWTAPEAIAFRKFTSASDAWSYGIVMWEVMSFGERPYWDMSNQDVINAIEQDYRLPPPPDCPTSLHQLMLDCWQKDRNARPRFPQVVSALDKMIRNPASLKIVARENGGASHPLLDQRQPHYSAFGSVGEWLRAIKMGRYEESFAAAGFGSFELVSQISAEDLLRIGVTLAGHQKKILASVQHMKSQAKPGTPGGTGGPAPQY

Chain of Dual specificity mitogen-activated protein kinase kinase 3 (Homo sapiens) (P46734 whole entry): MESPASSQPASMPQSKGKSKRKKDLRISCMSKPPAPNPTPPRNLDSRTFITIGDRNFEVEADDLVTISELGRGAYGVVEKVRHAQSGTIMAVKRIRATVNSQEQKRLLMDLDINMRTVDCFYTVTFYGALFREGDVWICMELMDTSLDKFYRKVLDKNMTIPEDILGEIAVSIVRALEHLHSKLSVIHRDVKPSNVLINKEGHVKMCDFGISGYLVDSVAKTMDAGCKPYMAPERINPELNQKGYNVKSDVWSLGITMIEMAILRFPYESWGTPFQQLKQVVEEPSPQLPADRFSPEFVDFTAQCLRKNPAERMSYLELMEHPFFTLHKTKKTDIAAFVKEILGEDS

Row | SMILES | Activity [1] | Activity [2] | Activity [3] | Activity [4] | Activity [5] | Activity [6] | Activity [7] | Activity [8] | Activity [9] | Activity [10]
1 | Nc1ccccc1Nc1ccc2c(c1)CCc1ccccc1C2=O | 97% | 86% | 90% | 84% | 90% | 86% | 71% | 96% | 86% | 97%
2 | O=C1c2ccc(Nc3ccc(F)cc3F)cc2CCc2ccc(OC[C@H](O)CO)cc21 [Skepinone-L] | 95% | 82% | 91% | 95% | 100% | 100% | 97% | 99% | 100% | 100%
